Measured values as given in patent US7915402B2, “Antioxidant inflammation modulators: oleanolic acid derivatives with saturation in the C-ring” (Reata Pharmaceuticals, Inc., priority 2008, dated 2011).
Values joined by “and” are separate entries in the source; they are usually repeats but may differ in a detail not shown here. Identical values can stand only once.

Experiments:
[1] = Plasma pharmacokinetics after oral dosing in monkeys; assay type: in vivo; details: cynomolgus monkey; for Mean Maximum 404-02 Plasma Concentration (nM) ± SEM / Mean Maximum 404-02 Plasma Concentration (ng/mL) ± SEM: oral gavage
Method: Doses were prepared in sesame oil and individualized to body weight on the day of dosing. Blood was drawn prior to dosing and at 1, 2, 4, 8 and 24 hours post -dose on days 1 and 12. Blood samples were collected from the femoral artery/vein for determination of 404-02 plasma concentrations. Blood was placed in tubes containing K3EDTA and stored on ice until centrifugation at room temperature. The isolated plasma was transferred to cryovials and stored at −80° C. until sample processing and LC -MS/MS analysis. Extracted plasma standard curves were prepared from fresh stock solutions and analyzed prior to study samples.
Population mean pharmacokinetic parameter estimates were obtained by performing non-compartmental analysis of the 404-02 plasma concentration-versus-time data using WinNonlin™ software version 5.2.
Pharmacokinetic parameters obtained using non-compartmental analysis, WinNonlin™ version 5.2.
Pharmacokinetic parameters were obtained using non-compartmental analysis using WinNonlin™ version 5.2 software.

[2] = tested on: RAW264.7 macrophages; experiment: Cell viability, WST-1 reagent; assay type: cell-based, mouse; details: Mus musculus, RAW264.7 (20 ng/ml IFNγ)
How it was run: (§1)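 Cells pre-treated with DMSO or compound at various nM concentrations for 2 h, then stimulated with 20 ng/ml recombinant mouse IFNγ for 24 h. Nitrite in medium measured by Griess reagent; viability read by WST-1.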

[3] = CNS and lung tissue concentrations after oral dosing in monkeys; assay type: in vivo; details: cynomolgus monkey; for excess of mean CNS concentration compared to the dose necessary to suppress inflammation in vitro: vs NO IC50 about 45 nM; for Mean 404-02 CNS Tissue Content (ng/g) ± SEM: day 15, about 3 h after dosing; for Mean 404-02 CNS Tissue Concentration (nM) ± SEM: conversion assumes tissue density 1 g/mL
Method: CNS and lung concentrations following oral dosing: 2 male and 2 female cynomolgus monkeys were administered 404-02 at 0.5, 5, 25 or 75 mg/kg/day doses via oral gavage, in addition to a control (non-treatment) group with 2 animals per sex. Animals were sacrificed approximately 3 hours after dosing on day 15 following harvest of brain and lung tissues. Each sample collected was rinsed in 1× isotonic phosphate buffered saline and blotted dry before weighing. Harvested tissue slices were transferred to cryovials and stored at −80° C. until processing and LC-MS/MS analysis. Standard curves were derived for 404-02 in homogenates of these tissues and were used to quantify the day 15 samples.

[4] = tested on: IFNγ-induced NO production in RAW264.7 macrophages; experiment: Suppression of IFNγ-induced NO production (Griess reagent); assay type: cell-based, mouse; details: Mus musculus; RAW264.7, 20 ng/ml IFNγ 24 h, 2 h pre-treatment
How it was run: as §1

[5] = tested on: Ferritin heavy chain; experiment: Induction of ferritin heavy chain mRNA (qPCR); assay type: cell-based, human; details: MDA-MB-435 cells, 16 hours
Method: FIG. 24. Induction of Ferritin Heavy Chain. MDA-MB-435 human melanoma cells were treated with vehicle (DMSO) or the indicated compounds and concentrations for 16 hours. Ferritin heavy chain mRNA levels were quantified using qPCR and were normalized relative to a DMSO-treated sample run in parallel. Values are averages of duplicate wells.
Nrf2 target gene induction. MDA-MB-435 human melanoma cells were treated with vehicle (DMSO) or the indicated compounds and concentrations for 16 hours. HO-1, thioredoxin reductase-1 (TrxR1), γ-glutamylcysteine synthetase (γ-GCS), and ferritin heavy chain mRNA levels were quantified using qPCR and were normalized relative to a DMSO-treated sample run in parallel. Values are averages of duplicate wells. Primer sequences are as follows.

[6] = CNS and lung tissue concentrations after oral dosing in rats; assay type: in vivo; details: both sexes, Sprague Dawley, rat, SD rats, oral gavage, day 15, 3 h post-dose
Method: To examine tissue concentrations following oral dosing, 5 male and 5 female Sprague Dawley (SD) rats were administered 404-02 at 1, 10, 50 or 150 mg/kg/day via oral gavage. Doses were prepared in sesame oil and individualized to body weight on the day of dosing. Animals were sacrificed 3 hours post-dose on day 15 of study following harvest of brain and lung specimens. Each sample collected was rinsed in 1× isotonic phosphate buffered saline and blotted dry before weighing. Tissue slices were transferred to cryovials and stored at −80° C. until processing and LC-MS/MS analysis. Standard curves were derived for 404-02 in these tissues.

[7] = oral gavage, 0.5 mg/kg/day, day 15
[8] = oral gavage, 5 mg/kg/day, day 15
[9] = oral gavage, 25 mg/kg/day, day 15
[10] = oral gavage, 75 mg/kg/day, day 15

CC1(C)CC[C@]2(C(=O)NCC(F)(F)F)CC[C@]3(C)[C@H](C(=O)C[C@@H]4[C@@]5(C)C=C(C#N)C(=O)C(C)(C)[C@@H]5CC[C@]43C)[C@@H]2C1 [Compound 63102, (4aS,6aR,6bR,8aR,12aR,12bR,14aR,14bS)-11-cyano-2,2,6a,6b,9,9,12a-heptamethyl-10,14-dioxo-N-(2,2,2-trifluoroethyl)-1,2,3,4,4a,5,6,6a,6b,7,8,8a,9,10,12a,12b,13,14,14a,14b-icosahydropicene-4a-carboxamide]
Mean Maximum 404-02 Plasma Concentration (nM) ± SEM ([1]; 0.5 mg/kg/d, day 1, n=4): 3.4 ± 0.61 nM
Mean Maximum 404-02 Plasma Concentration (ng/mL) ± SEM ([1]; 0.5 mg/kg/d, day 1, n=4): 1.95 ± 0.35 ng/mL
Mean Maximum 404-02 Plasma Concentration (ng/mL) ± SEM ([1]; 0.5 mg/kg/d, day 12, n=4): 2.65 ± 0.6 ng/mL
Mean Maximum 404-02 Plasma Concentration (nM) ± SEM ([1]; 0.5 mg/kg/d, day 12, n=4, listed as 404-02, 0.5 mg/kg/day): 4.6 nM and 4.6 ± 1.0 nM
Mean Maximum 404-02 Plasma Concentration (nM) ± SEM ([1]; 5 mg/kg/d, day 1, n=4): 17.6 ± 6.6 nM
Mean Maximum 404-02 Plasma Concentration (ng/mL) ± SEM ([1]; 5 mg/kg/d, day 1, n=4): 10.1 ± 3.8 ng/mL
Mean Maximum 404-02 Plasma Concentration (ng/mL) ± SEM ([1]; 5 mg/kg/d, day 12, n=4): 7.3 ± 1.7 ng/mL
Mean Maximum 404-02 Plasma Concentration (nM) ± SEM ([1]; 5 mg/kg/d, day 12, n=4, listed as 404-02, 5 mg/kg/day): 12.7 nM and 12.7 ± 2.9 nM
Mean Maximum 404-02 Plasma Concentration (nM) ± SEM ([1]; 25 mg/kg/d, day 1, n=4): 29.3 ± 2.3 nM
Mean Maximum 404-02 Plasma Concentration (ng/mL) ± SEM ([1]; 25 mg/kg/d, day 1, n=4): 16.8 ± 1.3 ng/mL
Mean Maximum 404-02 Plasma Concentration (ng/mL) ± SEM ([1]; 25 mg/kg/d, day 12, n=4): 10.0 ± 3.7 ng/mL
Mean Maximum 404-02 Plasma Concentration (nM) ± SEM ([1]; 25 mg/kg/d, day 12, n=4, listed as 404-02, 25 mg/kg/day): 17.5 nM and 17.5 ± 6.4 nM
Mean Maximum 404-02 Plasma Concentration (nM) ± SEM ([1]; 75 mg/kg/d, day 1, n=4): 33.8 ± 4.7 nM
Mean Maximum 404-02 Plasma Concentration (ng/mL) ± SEM ([1]; 75 mg/kg/d, day 1, n=4): 19.4 ± 2.7 ng/mL
Mean Maximum 404-02 Plasma Concentration (nM) ± SEM ([1]; 75 mg/kg/d, day 12, n=4, listed as 404-02, 75 mg/kg/day): 48.6 nM
increase in AUC0-24hr after 12 days of dosing compared to day 1 ([1]; oral, 75 mg/kg dose level): 1.6 fold
accumulation (AUC day 12 vs day 1) ([1]; oral, other dose levels (0.5, 5, 25 mg/kg/day)): Accumulation was not observed
IC50 [2]: > 200 nM
concentration at 3 h ([3]; both sexes, lung, oral gavage, 25 mg/kg/day, day 15, read-out: Mean 404-02 Lung Tissue Concentration (nM) ± SEM): 246 ± 87 nM
excess of mean CNS concentration compared to the dose necessary to suppress inflammation in vitro ([3]; 0.5 mg/kg/day): 48 fold
excess of mean CNS concentration compared to the dose necessary to suppress inflammation in vitro ([3]; 5 mg/kg/day): 44 fold
excess of mean CNS concentration compared to the dose necessary to suppress inflammation in vitro ([3]; 25 mg/kg/day): 37 fold
increase of mean lung tissue exposure compared to the dose necessary to suppress inflammation in vitro ([3]; 75 mg/kg/day): 133 fold
excess of mean CNS concentration compared to the dose necessary to suppress inflammation in vitro ([3]; 75 mg/kg/day): 75 fold
Mean 404-02 Lung Tissue Concentration (nM) ± SEM [3, 7]: 1227 ± 508 nM
Mean 404-02 Lung Tissue Content (ng/g) ± SEM [3, 7]: 705 ± 292 ng/g
Mean 404-02 CNS Tissue Content (ng/g) ± SEM ([3]; oral gavage, 0.5 mg/kg/day): 1198 ± 712 ng/g
Mean 404-02 Lung Tissue Concentration (nM) ± SEM [3, 8]: 55 ± 27 nM
Mean 404-02 Lung Tissue Content (ng/g) ± SEM [3, 8]: 24 ± 15 ng/g
Mean 404-02 CNS Tissue Content (ng/g) ± SEM ([3]; oral gavage, 5 mg/kg/day): 1090 ± 564 ng/g
Mean 404-02 CNS Tissue Concentration (nM) ± SEM [3, 8]: 1900 ± 982 nM
Mean 404-02 Lung Tissue Content (ng/g) ± SEM [3, 9]: 141 ± 50 ng/g
Mean 404-02 CNS Tissue Content (ng/g) ± SEM ([3]; oral gavage, 25 mg/kg/day): 930 ± 352 ng/g
Mean 404-02 CNS Tissue Concentration (nM) ± SEM [3, 9]: 1618 ± 612 nM
Mean 404-02 Lung Tissue Concentration (nM) ± SEM [3, 10]: 5929 ± 1435 nM
Mean 404-02 Lung Tissue Content (ng/g) ± SEM [3, 10]: 3405 ± 824 ng/g
Mean 404-02 CNS Tissue Content (ng/g) ± SEM ([3]; oral gavage, 75 mg/kg/day): 1898 ± 496 ng/g
Mean 404-02 CNS Tissue Concentration (nM) ± SEM [3, 10]: 3305 ± 864 nM
IC50 [4]: ~45 nM
Ferritin heavy chain mRNA induction: concentration needed compared with unsaturated counterpart (402, 404) [5]: higher concentrations
concentration at 3 h ([6]; brain (CNS tissue), 1 mg/kg/day, read-out: Mean 404-02 CNS Tissue Concentration (nM) ± SEM): 51 ± 11.8 nM
concentration at 3 h ([6]; brain (CNS tissue), 1 mg/kg/day, read-out: Mean 404-02 CNS Tissue Content (ng/g = ng/mL) ± SEM): 29 ± 6.8 ng/g
concentration at 3 h ([6]; brain (CNS tissue), 10 mg/kg/day, read-out: Mean 404-02 CNS Tissue Concentration (nM) ± SEM): 733 ± 173 nM
concentration at 3 h ([6]; brain (CNS tissue), 10 mg/kg/day, read-out: Mean 404-02 CNS Tissue Content (ng/g = ng/mL) ± SEM): 421 ± 99 ng/g
concentration at 3 h ([6]; brain (CNS tissue), 50 mg/kg/day, read-out: Mean 404-02 CNS Tissue Concentration (nM) ± SEM): 1310 ± 188 nM
concentration at 3 h ([6]; brain (CNS tissue), 50 mg/kg/day, read-out: Mean 404-02 CNS Tissue Content (ng/g = ng/mL) ± SEM): 750 ± 108 ng/g
concentration at 3 h ([6]; brain (CNS tissue), 150 mg/kg/day, read-out: Mean 404-02 CNS Tissue Concentration (nM) ± SEM): 1110 ± 143 nM
concentration at 3 h ([6]; brain (CNS tissue), 150 mg/kg/day, read-out: Mean 404-02 CNS Tissue Content (ng/g = ng/mL) ± SEM): 640 ± 82 ng/g
concentration at 3 h ([6]; lung, 1 mg/kg/day, read-out: Mean dh404 Lung Tissue Concentration (nM) ± SEM): 972 ± 215 nM
concentration at 3 h ([6]; lung, 1 mg/kg/day, read-out: Mean dh404 Lung Tissue Content (ng/g = ng/mL) ± SEM): 558 ± 123 ng/g
concentration at 3 h ([6]; lung, 10 mg/kg/day, read-out: Mean dh404 Lung Tissue Concentration (nM) ± SEM): 7020 ± 1620 nM
concentration at 3 h ([6]; lung, 10 mg/kg/day, read-out: Mean dh404 Lung Tissue Content (ng/g = ng/mL) ± SEM): 4030 ± 928 ng/g
concentration at 3 h ([6]; lung, 50 mg/kg/day, read-out: Mean dh404 Lung Tissue Concentration (nM) ± SEM): 12500 ± 2130 nM
concentration at 3 h ([6]; lung, 50 mg/kg/day, read-out: Mean dh404 Lung Tissue Content (ng/g = ng/mL) ± SEM): 7160 ± 1220 ng/g
concentration at 3 h ([6]; lung, 150 mg/kg/day, read-out: Mean dh404 Lung Tissue Concentration (nM) ± SEM): 16900 ± 2860 nM
concentration at 3 h ([6]; lung, 150 mg/kg/day, read-out: Mean dh404 Lung Tissue Content (ng/g = ng/mL) ± SEM): 9720 ± 1640 ng/g
